Results published in patent publication US5840918A, “Isoprenyl transferase inhibitors” (Eisai Co., Ltd., priority 1997, dated 1998).
“Also recorded” adds a separate entry of the source. Blank lines part the entries; values can stand above or below the compound they belong to.

Tests used:
[1] = tested on: H-ras (61L) transformed NIH3T3 fibroblast tumors; experiment: Inhibition of tumor xenograft in mice, Example D (PD331); type: in vivo, mouse; details: for T/C (%) Volume / Tumor Volume: day 14
Protocol: Cells were harvested from exponential-phase maintenance cultures (T-225 cm^2 culture flasks, Corning Inc., Corning, N.Y.) with trypsin-EDTA (GIBCO), centrifuged at 160 ×g for 5 min, washed once with 10 mL cold Hank's balanced salt solution (HBSS, GIBCO), and resuspended at a concentration of 1×10^6 cells/mL. Five week old female athymic nude mice were obtained from SLC (3371-8, Kotoummachi, Hamamatsu-shi, Shizuoka 431-11, Japan) and maintained under pathogen-free conditions. […] Inhibitor compound PD331 was suspended in saline containing 2% Tween-80 in a total injection volume of 0.2 mL. Two dosage concentrations were prepared, 0.3 mg/mouse or 1.0 mg/mouse. Compound PD331 was subcutaneously injected daily at the site of tumor cell implantation for 5 consecutive days, starting approximately 8 h after the implantation (day 0). The control group was injected with vehicle only. Body weight and tumor dimensions were measured at days 7, 10, and 14. Tumor volume was estimated by the following calculation: tumor volume =(0.5)(length×width×width). At day 14, each mouse was euthanized with CO2 (g), and each tumor was excised and weighed. The statistical significance was estimated by the Student's T-test.

[2] = tested on: H-ras farnesylation in H-ras (61L) transformed NIH3T3 fibroblasts; experiment: Inhibition of H-ras farnesylation in whole cells (Western blot); type: cell-based, mouse; details: Mus musculus, NIH3T3, 24 h, Table 2
Protocol: The ability of compounds of the invention to inhibit H-ras farnesylation and rap1 geranylgeranylation in whole cells was determined. H-ras (61L) transformed NIH3T3 fibroblasts were generously provided by C. Der, Univ. N. Carolina. These fibroblasts were treated for 24 h with 50 μM lovastatin (control) or the indicated concentrations of inhibitor. The cells were lysed in 1% NP-40, 5 mM Tris-HCl (pH 8.0), 5 mM EDTA, 0.1 mM N-tosyl-L-phenylalanine chloromethyl ketone, 0.1 mM N-tosyl-L-lysine chloromethyl ketone, and 1 mM phenylmethylsulfonyl fluoride. The lysate was centrifuged (15000×g, 5 min.) and the supernatant was used as a cell extract. […] After transfer to IMMOBILON P™ membrane (Millipore), the blots were probed with LA069 mouse monoclonal antibody to H-ras (Quality Biotech), or rabbit polyclonal antibody to rap1/Krev (Santa Cruz Biotechnology). All Western blots were developed using ECL chemiluminescent reagents (Amersham).

[3] = tested on: MIApaca-2; experiment: Inhibition of anchorage-independent tumor cell growth, MIApaca-2; type: cell-based; details: Homo sapiens, MIA PaCa-2, 336 h; MIApaca-2, 14 days, soft agar
Protocol: (§1) HT1080 is a […] with a N-ras mutation. MIApaca-2 is a pancreatic carcinoma and Sw620 is a colonic carcinoma; each of these has a K-ras mutation. T24 is a bladder carcinoma with a H-ras mutation; and zH1 is a H-ras-transformed NIH/3T3 mouse fibroblast. Additional compounds have been tested and have yielded positive results in these organ-specific or ras-protein specific anchorage-independent tumor cell models.
(§2) Five tumor cell lines were seeded at 600 cells/well (12-well plates) in 0.6 mL of 0.3% Noble agar in culture medium over a bottom agar layer (0.5% Noble agar in culture medium). The culture medium was Dulbecco's modified Eagle's medium (Nissui Pharmaceutical Co., Ltd., Tokyo, Japan), supplemented with 10% heat-inactivated calf serum (GIBCO, Grand Island, N.Y.). A 10 mM stock solution of inhibitor compound PD331 in DMSO was diluted with culture medium to 3× the final concentration and 0.6 mL of the diluted inhibitor solution was overlayed on each well. Controls contained the same amount of DMSO as inhibitor samples. Plates were incubated at 37° C. in 5% CO2 for 14 days. Colonies were counted by replacement of the overlaying medium with 0.6 mL of 2 mg/mL MTT in PBS, incubation for 30 min, and quantitation of scanned photographs. IC50 concentrations for each cell line are shown below in Table 3.

[4] = tested on: T24; experiment: Inhibition of anchorage-independent tumor cell growth, T24; type: cell-based; details: Homo sapiens, T-24, 336 h; T24, 14 days, soft agar
Protocol: as §1, §2

[5] = molecular target: T1, FTase (Bos taurus, UniProt P29702+P49355); experiment: Inhibition of FTase-mediated prenylation (in vitro prenylation assay); type: biochemical; details: Table 1; partially purified FTase, 3 μM recombinant H-ras, 440 nM [3H]FPP, 15 min 37° C
T1 construct: bovine brain by inference from the cited Moores et al. 1991
Excerpt: (§3) Nanomolar concentrations of the indicated compounds were sufficient to inhibit farnesylation of ras proteins in vitro. For screening candidate compounds useful for the treatment of ras-associated tumors, the FTase assay is preferred. […] Substitutions which confer GGTase specificity as taught herein also produced potent inhibitors of GGTase.

[6] = molecular target: GGTase; experiment: Inhibition of GGTase-mediated prenylation (in vitro prenylation assay); type: biochemical; details: Table 1; partially purified GGTase, 5 μM recombinant H-ras (61L, CAIL), 1 μM [3H] geranylgeranyl diphosphate
Excerpt: as §3

[7] = tested on: Sw620; experiment: Inhibition of anchorage-independent tumor cell growth, Sw620; type: cell-based; details: Homo sapiens, SW-620, 336 h; Sw620, 14 days, soft agar
Protocol: as §1, §2

[8] = tested on: HT1080; experiment: Inhibition of anchorage-independent tumor cell growth, HT1080; type: cell-based; details: Homo sapiens, HT-1080, 336 h; HT1080, 14 days, soft agar
Protocol: as §1, §2

[9] = tested on: zH1 (H-ras-transformed NIH/3T3 mouse fibroblast); experiment: Inhibition of anchorage-independent tumor cell growth, zH1; type: cell-based; details: NIH3T3, 336 h, zH1, 14 days, soft agar
Protocol: as §1, §2

[10] = tested on: H-ras (61L) transformed NIH3T3 fibroblast tumors; experiment: Inhibition of tumor xenograft in mice, Example E (PM061); type: in vivo, mouse; details: for T/C (%) Volume / Tumor Volume: day 15
Protocol: H-ras (61L) transformed NIH3T3 fibroblasts were grown in Dulbecco's modified Eagle's medium supplemented with 10% heat-inactivated calf serum. 100 U/mL penicillin, 100 μg/mL streptomycin, and 0.75 mg/mL G418 (GIBCO) and incubated at 37° C. in 5% CO2. Cells were harvested from exponential-phase maintenance cultures (T-225 cm^2 culture flasks, Corning Inc., Corning, N.Y.) with trypsin-EDTA (GIBCO), centrifuged at 160 ×g for 5 min, washed once with 10 mL cold Hank's balanced salt solution (HBSS, GIBCO), and resuspended at a concentration of 1×10^6 cells/mL.
Five week old female athymic nude mice were obtained from SLC (3371-8, Kotoummachi, Hamamatsu-shi, Shizuoka 431-11, Japan) and maintained under pathogen-free conditions. The mice were subcutaneously injected in the lateral flank with 1×10^5 H-ras transformed cells/mouse.
Inhibitor compound PD331 was suspended in saline containing 2% Tween-80 in a total injection volume of 0.2 mL. Two dosage concentrations were prepared, 0.3 mg/mouse or 1.0 mg/mouse. Compound PD331 was subcutaneously injected daily at the site of tumor cell implantation for 5 consecutive days, starting approximately 8 h after the implantation (day 0). The control group was injected with vehicle only. Body weight and tumor dimensions were measured at days 7, 10, and 14. Tumor volume was estimated by the following calculation: tumor volume =(0.5)(length×width×width). At day 14, each mouse was euthanized with CO2 (g), and each tumor was excised and weighed. The statistical significance was estimated by the Student's T-test.
The same in vivo experiment as Example D above was performed, using compound PM061. Instead of 0.3 mg/mouse and 1.0 mg/mouse, three injection concentrations were prepared (0.5 mg/mouse, 1.0 mg/mouse, and 2.0 mg/mouse). Body weight and tumor size were measured at days 7, 10, and 15. Tumors were excised at day 15.

[11] = 0.3 mg/mouse s.c. daily for 5 days
[12] = 1.0 mg/mouse s.c. daily for 5 days

IC50 [3]: 19000 nM
IC50 [4]: 300 nM
IC50 [5]: 11 nM
IC50 [6]: 13 nM
IC50 [7]: 22000 nM
IC50 [8]: 1800 nM
Structure (SMILES): CSCC[C@H](NC(=O)C(/C=C\[C@@H](/C=C/[C@@H](N)CS)C(C)C)Cc1ccccc1)C(=O)O (stereo partly shown) [PD331]
T/C (%) Volume [1, 11]: 53.3%
Tumor Volume [1, 11]: 871.28 ± 526.90 µL
T/C (%) Volume [1, 12]: 16.5%
Tumor Volume [1, 12]: 269.55 ± 292.95 µL
weight and volume of tumors versus control group ([1]; every concentration): both the weight and the volume of the tumors from the treated group were less than the weight and volume of tumors from the control group
effect on H-ras tumor growth in mice ([1]; mouse, in vivo): has a significant effect on H-ras tumor growth in mice; also recorded: effectively inhibited the growth of ras-associated tumors in mice
IC50 [2]: 400 nM
IC50 [9]: 600 nM

IC50 [5]: 7 nM
IC50 [6]: 144 nM
Structure (SMILES): CSCC[C@H](NC(=O)c1cc(C/C=C/C(N)CS)ccc1-c1ccccc1)C(=O)O (stereo partly shown) [PM061]
IC50 [2]: 4800 nM
T/C (%) Volume ([10]; 0.5 mg/mouse s.c.): 90.3%
Tumor Volume ([10]; 0.5 mg/mouse s.c.): 2360.4 ± 645.0 µL
T/C (%) Volume ([10]; 1.0 mg/mouse s.c.): 101.8%
Tumor Volume ([10]; 1.0 mg/mouse s.c.): 2660.3 ± 756.4 µL
T/C (%) Volume ([10]; 2.0 mg/mouse s.c.): 53.6%
Tumor Volume ([10]; 2.0 mg/mouse s.c.): 1400.6 ± 703.2 µL
tumor volume as % of the tumor volume in the control mouse ([10]; injection of 2.0 mg): 53.2%
effect on H-ras tumor growth in mice ([10]; mouse, in vivo): had a significant effect on H-ras tumor growth in mice; also recorded: effectively inhibited the growth of ras-associated tumors in mice
